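Five compound concentrations were applied to cells in 96-well plates for 48 hours; endpoints were derived by simple linear interpolation of the resulting dose-response curve. The concentration for 50% growth inhibition is given as GI50. TGI is the concentration that stops growth completely.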

10 compounds from PubChem BioAssay (NCI) can be followed below.

What all share (assay): growth of human tumour cells (NCI), 48 h
Test [1] concerns SF-295 CNS.
Test [2] deals with K-562 leukemia.
Test [3] relates to PC-3 prostate.
The subject of test [4] is MALME-3M melanoma.
Test [5] relates to DU-145 prostate.
In test [6] the test system is RPMI-8226 leukemia.
Test [7] concerns HCT-116 colon.
Test [8] relates to MOLT-4 leukemia.
Test [9] relates to UACC-62 melanoma.
Test [10] has as its system A498 renal.

Consider `N#Cc1cccc(OCc2ccccc2COc2cccc(C#N)c2)c1`, for which the GI50 is 5.64 µM in [1]; 64.5 µM in test [2]; 25.5 µM in [3]; 4.02 µM in [4]; 25.9 µM in [5]; 15 µM in test [6]. The GI50 in test [7] is 22 µM; in test [8] it was more than 100 µM; in [9] it was 18.3 µM. Also, the TGI is 20.3 µM in [1]; more than 100 µM in [2]; more than 100 µM in [3]; 38 µM in [4]; 99.1 µM in test [5]; 59.1 µM in test [6]. The TGI in [7] is 93.3 µM; in [8], more than 100 µM; in test [9], 73 µM.

Turning to `O=C(c1ccccc1)C1C(C(=O)c2ccccc2)C(c2ccccc2)N(c2ccccc2)C1c1ccccc1` (configuration not stated), the TGI in test [1], in [2], in test [3], in test [4], in test [5] and in test [6] was more than 100 µM in each case. Besides, the TGI in test [7], in test [8] and in test [9] was more than 100 µM in each case.

For the compound `C#CCN(Cc1nc2cc(C(F)(F)F)ccc2nc1-c1ccccc1)c1ccc(F)c(F)c1`, the GI50 in [1] was 39.7 µM; in [2], 39.4 µM; in test [3] it was 37.6 µM; in [5] it was 37.3 µM; in test [6] it was 22.1 µM; in test [7] it was 38 µM. Further, the GI50 in test [8] was 30.3 µM; in test [9] it was 44.5 µM; in test [10], 39.9 µM. The TGI in test [1] was more than 100 µM; in test [2], more than 100 µM; in test [3], more than 100 µM; in [5], more than 100 µM; in [6], 82.7 µM; in test [7], more than 100 µM. For the same compound, the TGI in test [8], in test [9] and in test [10] was more than 100 µM throughout.

`COc1ccc(/C=N/N=C(\[O-])c2ccncc2)cc1F.COc1ccc(/C=N\N=C(/[O-])c2ccncc2)cc1F.[Cu+2]`: the GI50 in [1] was 11.2 µM; in [2] it was 24.6 µM; in test [3] it was 16.8 µM; in test [4] it was 25.9 µM; in test [5], 32 µM; in test [6], 40.1 µM. The figures for the GI50 in [7], in test [8] and in test [9] were 27 µM, 26 µM and 23.8 µM, respectively. Also, the TGI in [1] is 26.5 µM; in test [2], more than 100 µM; in test [3], 35.1 µM; in test [4] it was more than 100 µM; in test [5], more than 100 µM; in test [6] it was more than 100 µM. Besides, the TGI was more than 100 µM in test [7], more than 100 µM in [8] and 52.8 µM in test [9].

With `O=S(=O)(O)ONC1=NCCN1`, the GI50 in test [1] was more than 100 µM; in [2], more than 100 µM; in test [3], more than 100 µM; in test [4] it was more than 100 µM; in test [5] it was more than 100 µM; in test [6], 46.1 µM. In addition, the values for the GI50 in [7], in [8] and in test [9] were 65.1 µM, 49.7 µM and more than 100 µM, respectively. Further, the TGI in test [1], in test [2], in test [3], in [4], in test [5] and in test [6] was more than 100 µM each time. Besides, the TGI in [7], in test [8] and in test [9] was more than 100 µM each time.

Turning to `C=CCCC(=O)N1C=CC(=O)[C@H](O)[C@@H]1/C=C/c1ccccc1`, the GI50 in [1] is 10.7 µM; in test [2] it was 9.3 µM; in test [4], 9.61 µM; in [5], 10.4 µM; in test [6] it was 15.6 µM; in [7], 6.24 µM. Further, the GI50 is 15.6 µM in test [8], 6.27 µM in test [9] and more than 32.5 µM in [10]. Also, the TGI in test [1], in test [2], in test [4], in test [5], in test [6] and in test [7] was more than 32.5 µM throughout. The figures for the TGI in test [8], in test [9] and in [10] were more than 32.5 µM, 15.6 µM and more than 32.5 µM, respectively.

In the case of `Cc1cc(O)c(C(c2ccncc2)c2c(O)cc(C)[nH]c2=O)c(=O)[nH]1`, the TGI in test [1], in [2], in [3], in test [4], in test [5] and in test [6] was more than 100 µM each time. In addition, the TGI in test [7], in test [8] and in test [9] was more than 100 µM each time.

On to `O=C(Nc1cccc(C(F)(F)F)c1)c1cc(Br)cc(Br)c1O`, for which the TGI in test [1] is 7.19 µM; in [2], 7.18 µM; in test [3] it was 7.28 µM; in test [5], more than 10 µM; in test [6] it was 5.86 µM; in [7], 5.44 µM. Also, the TGI in test [8] and in test [9] was more than 10 µM in each case.

Regarding `C#CCN(C)C(=O)N(CC#C)N=O`, the TGI in [1], in test [2], in test [4], in [6], in test [7] and in [8] was more than 100 µM throughout. The TGI in [9] and in test [10] was more than 100 µM throughout.

As to `O=C(CC(=O)c1ccccc1)c1ccccc1`, the GI50 was 17.3 µM in test [1]; 8.31 µM in test [2]; 25.9 µM in test [3]; 23.2 µM in [4]; 11.9 µM in [5]; 21.3 µM in test [6]. The GI50 in test [7] is 16.6 µM; in test [8], 17.3 µM; in [9], 21.7 µM. In addition, the TGI is 99.7 µM in test [1]; more than 100 µM in test [2]; more than 100 µM in test [3]; 64.1 µM in [4]; 65.3 µM in test [5]; more than 100 µM in test [6]. Further, the TGI was more than 100 µM in test [7], more than 100 µM in test [8] and 77.5 µM in [9].
